Data taken from patent publication US20240384268A1, “Oligonucleotides” (Hudson Institute of Medical Research, priority 2021, published 2024).

biological target: T1, human TLR7 (Homo sapiens, UniProt Q9NYK1); experiment: HEK-TLR7 NF-κB-luciferase reporter, R848 stimulation; format: cell-based; details: ASO 100 nM; relative to R848 only, given as fraction
T1 construct: HA; host or cells: 293XL-hTLR7-HA (HEK293)
T1 sequence (Q9NYK1 27-1049): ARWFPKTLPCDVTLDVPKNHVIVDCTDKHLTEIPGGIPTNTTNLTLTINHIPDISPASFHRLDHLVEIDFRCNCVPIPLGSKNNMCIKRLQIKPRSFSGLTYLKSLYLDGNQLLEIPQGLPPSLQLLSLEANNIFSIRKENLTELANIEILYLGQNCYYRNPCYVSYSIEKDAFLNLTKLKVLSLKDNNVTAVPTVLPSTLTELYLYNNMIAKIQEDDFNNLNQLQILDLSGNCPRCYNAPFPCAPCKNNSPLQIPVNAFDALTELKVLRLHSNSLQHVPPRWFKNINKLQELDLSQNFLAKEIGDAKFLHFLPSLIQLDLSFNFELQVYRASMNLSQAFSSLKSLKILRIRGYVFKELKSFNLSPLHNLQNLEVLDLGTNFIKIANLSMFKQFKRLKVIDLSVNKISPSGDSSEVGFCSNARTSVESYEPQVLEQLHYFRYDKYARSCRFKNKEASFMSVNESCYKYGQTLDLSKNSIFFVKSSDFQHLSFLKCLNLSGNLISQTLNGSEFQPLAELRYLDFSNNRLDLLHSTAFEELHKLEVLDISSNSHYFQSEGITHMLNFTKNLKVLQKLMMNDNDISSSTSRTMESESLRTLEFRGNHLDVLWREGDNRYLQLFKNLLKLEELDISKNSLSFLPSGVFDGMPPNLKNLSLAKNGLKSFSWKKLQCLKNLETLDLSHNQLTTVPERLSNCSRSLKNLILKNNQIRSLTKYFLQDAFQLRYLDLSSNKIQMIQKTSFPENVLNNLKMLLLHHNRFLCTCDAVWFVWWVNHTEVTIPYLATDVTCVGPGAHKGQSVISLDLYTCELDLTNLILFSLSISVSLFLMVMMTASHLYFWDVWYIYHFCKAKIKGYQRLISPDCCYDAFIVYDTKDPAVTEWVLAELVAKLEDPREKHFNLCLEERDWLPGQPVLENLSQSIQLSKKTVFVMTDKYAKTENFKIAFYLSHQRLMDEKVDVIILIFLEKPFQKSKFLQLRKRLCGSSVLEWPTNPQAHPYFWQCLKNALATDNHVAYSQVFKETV

| Sequence | TLR7 100 nM (averaged NF-κB-Luciferase level relative to R848 condition) |
| --- | --- |
| GAGGTCTTGGCTTCGT (antisense; LNA-modified, pattern not given here) [MB21D1-525 LNA V1] | 0.793 |
| GATGGCCTCCCATCTC (antisense; LNA-modified, pattern not given here) [HPRT LNA-331 V1] | 0.558 |
| GCACACTTCGTACCCA (antisense; LNA-modified, pattern not given here) [CAMSAP1-4915 LNA V1] | 0.657 |
| GCACTTCAGTCTGAGC (antisense; LNA-modified, pattern not given here) [MB21D1-719 LNA KL] | 0.713 |
| GGAGGTCTTGGCTTCG (antisense; LNA-modified, pattern not given here) [MB21D1-526 LNA V1] | 0.503 |
| GGCACTTTGCCTCCTT (antisense; LNA-modified, pattern not given here) [EGFR-2859 LNA V1] | 0.774 |
| GGCTCGGCTTGCCTAC (antisense; LNA-modified, pattern not given here) [CAMSAP1-5594 LNA V1] | 0.569 |
| GGTCATTACAATAGCT (antisense; LNA-modified, pattern not given here) [HPRT LNA-475 KL] | 0.580 |
| GGTCTTGGCTTCGTGG (antisense; LNA-modified, pattern not given here) [MB21D1-523 LNA V1] | 0.481 |
| GTCAAGGGCATATCCT (antisense; LNA-modified, pattern not given here) [HPRT LNA-732 KL] | 0.650 |
| GTCCTTGCACGTGGCT (antisense; LNA-modified, pattern not given here) [EGFR-1015 LNA V1] | 0.471 |
| GTCTCTGGAGCTTCCT (antisense; LNA-modified, pattern not given here) [CAMSAP1-2456 LNA V1] | 0.477 |
| GTCTTCATCGGCCCTG (antisense; LNA-modified, pattern not given here) [CAMSAP1-2113 LNA V1] | 0.641 |
| GTGATCTTGACATGCT (antisense; LNA-modified, pattern not given here) [EGFR-2790 LNA KL] | 0.438 |
| GTGATGGCCTCCCATC (antisense; LNA-modified, pattern not given here) [HPRT LNA-333 V1] | 0.665 |
| TACTTTCCGAGGTGTC (antisense; LNA-modified, pattern not given here) [CAMSAP1-1739 LNA KL] | 0.738 |
| TCCACAATCAAGACAT (antisense; LNA-modified, pattern not given here) [HPRT LNA-551 KL] | 0.863 |
| TCCATACCCAAGGCAT (antisense; LNA-modified, pattern not given here) [CTNN2B-2446 LNA V1] | 1.056 |
| TCCGCCCAAAGGGAAC (antisense; LNA-modified, pattern not given here) [HPRT LNA-1027 KL] | 0.860 |
| TCCTTGCACGTGGCTT (antisense; LNA-modified, pattern not given here) [EGFR-1014 LNA V1] | 0.812 |
| TCGTGGGGTCCTTTTC (antisense; LNA-modified, pattern not given here) [HPRT LNA-660 V1] | 0.540 |
| TCTTCATCGGCCCTGC (antisense; LNA-modified, pattern not given here) [CAMSAP1-2112 LNA V1] | 0.820 |
| TCTTGGCTTCGTGGAG (antisense; LNA-modified, pattern not given here) [MB21D1-521 LNA V1] | 1.033 |
| TGACAAAGATTCACTG (antisense; LNA-modified, pattern not given here) [HPRT LNA-1353 KL] | 1.040 |
| TGACTGTCTTGAGGGT (antisense; LNA-modified, pattern not given here) [MB21D1-1483 LNA KL] | 0.802 |
| TGCTCCTCGGTCTCCC (antisense; LNA-modified, pattern not given here) [CAMSAP1-1850 LNA V1] | 0.751 |
| TGGTCCACAACCCCTT (antisense; LNA-modified, pattern not given here) [MB21D1-697 LNA V1] | 1.008 |
| TGGTGGCCACCCATCT (antisense; LNA-modified, pattern not given here) [CTNN2B-2479 LNA V1] | 0.957 |
| TGTCCTTGCACGTGGC (antisense; LNA-modified, pattern not given here) [EGFR-1016 LNA V1] | 0.502 |
| TGTCTGGAAGCTTCCT (antisense; LNA-modified, pattern not given here) [CTNN2B-808 LNA V1] | 0.495 |

same assay, conditions: ASO 500 nM; relative to R848 only, given as fraction

| Sequence | TLR7 500 nM (averaged NF-κB-Luciferase level relative to R848 condition) |
| --- | --- |
| GAGGTCTTGGCTTCGT (antisense; LNA-modified, pattern not given here) [MB21D1-525 LNA V1] | 0.067 |
| GATGGCCTCCCATCTC (antisense; LNA-modified, pattern not given here) [HPRT LNA-331 V1] | 0.119 |
| GCACACTTCGTACCCA (antisense; LNA-modified, pattern not given here) [CAMSAP1-4915 LNA V1] | 0.221 |
| GCACTTCAGTCTGAGC (antisense; LNA-modified, pattern not given here) [MB21D1-719 LNA KL] | 0.168 |
| GGAGGTCTTGGCTTCG (antisense; LNA-modified, pattern not given here) [MB21D1-526 LNA V1] | 0.119 |
| GGCACTTTGCCTCCTT (antisense; LNA-modified, pattern not given here) [EGFR-2859 LNA V1] | 0.668 |
| GGCTCGGCTTGCCTAC (antisense; LNA-modified, pattern not given here) [CAMSAP1-5594 LNA V1] | 0.186 |
| GGTCATTACAATAGCT (antisense; LNA-modified, pattern not given here) [HPRT LNA-475 KL] | 0.049 |
| GGTCTTGGCTTCGTGG (antisense; LNA-modified, pattern not given here) [MB21D1-523 LNA V1] | 0.042 |
| GTCAAGGGCATATCCT (antisense; LNA-modified, pattern not given here) [HPRT LNA-732 KL] | 0.142 |
| GTCCTTGCACGTGGCT (antisense; LNA-modified, pattern not given here) [EGFR-1015 LNA V1] | 0.251 |
| GTCTCTGGAGCTTCCT (antisense; LNA-modified, pattern not given here) [CAMSAP1-2456 LNA V1] | 0.084 |
| GTCTTCATCGGCCCTG (antisense; LNA-modified, pattern not given here) [CAMSAP1-2113 LNA V1] | 0.119 |
| GTGATCTTGACATGCT (antisense; LNA-modified, pattern not given here) [EGFR-2790 LNA KL] | 0.060 |
| GTGATGGCCTCCCATC (antisense; LNA-modified, pattern not given here) [HPRT LNA-333 V1] | 0.139 |
| TACTTTCCGAGGTGTC (antisense; LNA-modified, pattern not given here) [CAMSAP1-1739 LNA KL] | 0.451 |
| TCCACAATCAAGACAT (antisense; LNA-modified, pattern not given here) [HPRT LNA-551 KL] | 0.533 |
| TCCATACCCAAGGCAT (antisense; LNA-modified, pattern not given here) [CTNN2B-2446 LNA V1] | 0.494 |
| TCCGCCCAAAGGGAAC (antisense; LNA-modified, pattern not given here) [HPRT LNA-1027 KL] | 0.543 |
| TCCTTGCACGTGGCTT (antisense; LNA-modified, pattern not given here) [EGFR-1014 LNA V1] | 0.482 |
| TCGTGGGGTCCTTTTC (antisense; LNA-modified, pattern not given here) [HPRT LNA-660 V1] | 0.318 |
| TCTTCATCGGCCCTGC (antisense; LNA-modified, pattern not given here) [CAMSAP1-2112 LNA V1] | 0.511 |
| TCTTGGCTTCGTGGAG (antisense; LNA-modified, pattern not given here) [MB21D1-521 LNA V1] | 0.288 |
| TGACAAAGATTCACTG (antisense; LNA-modified, pattern not given here) [HPRT LNA-1353 KL] | 0.430 |
| TGACTGTCTTGAGGGT (antisense; LNA-modified, pattern not given here) [MB21D1-1483 LNA KL] | 0.150 |
| TGCTCCTCGGTCTCCC (antisense; LNA-modified, pattern not given here) [CAMSAP1-1850 LNA V1] | 0.595 |
| TGGTCCACAACCCCTT (antisense; LNA-modified, pattern not given here) [MB21D1-697 LNA V1] | 0.545 |
| TGGTGGCCACCCATCT (antisense; LNA-modified, pattern not given here) [CTNN2B-2479 LNA V1] | 0.393 |
| TGTCCTTGCACGTGGC (antisense; LNA-modified, pattern not given here) [EGFR-1016 LNA V1] | 0.199 |
| TGTCTGGAAGCTTCCT (antisense; LNA-modified, pattern not given here) [CTNN2B-808 LNA V1] | 0.278 |
